Source: patent US20200390100A1, “SUBSTITUTED N-HETEROCYCLYL- AND N-HETEROARYL-TETRAHYDROPYRIMIDINONES AND THE SALTS THEREOF, AND THE USE OF SAME AS HERBICIDAL ACTIVE SUBSTANCES” (Bayer Aktiengesellschaft, priority 2017, published 2020)

How the values were obtained:
Polygonum convolvulus = assay: Pre-emergence herbicidal action, greenhouse, 320 g/ha; assay type: in vivo; conditions: application rate 320 g/ha, scored visually after about 3 weeks vs untreated controls
Procedure, shortened: (§1)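 Seeds were sown in pots and covered with soil. WP or EC formulations were sprayed onto the soil surface as aqueous suspension or emulsion with 0.5% additive. Damage was scored visually after about 3 weeks as % activity against untreated controls (100% = plants dead, 0% = like control).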

Digitaria sanguinalis = assay: as above; assay type: in vivo; conditions: application rate 320 g/ha, Table B9
Procedure, shortened: as §1

Lolium rigidum = assay: Herbicidal pre-emergence action (Part 2), 1280 g/ha; assay type: in vivo; conditions: application rate 1280 g/ha, scored visually after about 3 weeks, Table D2
Procedure, shortened: (§2)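 Visual percent activity, scored roughly 3 weeks after treatment relative to untreated pots (100% meaning plants died), is reported. Compounds as wettable powders or emulsion concentrates with 0.5% additive were applied to the soil surface over freshly sown seeds at 600 L water/ha.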

Poa annua = assay: as above; assay type: in vivo; conditions: application rate 1280 g/ha, scored visually after about 3 weeks, Table D3
Procedure, shortened: as §2

Setaria viridis = assay: as above; assay type: in vivo; conditions: application rate 1280 g/ha, scored visually after about 3 weeks, Table D4
Procedure, shortened: as §2

Echinochloa crus-galli = assay: as above; assay type: in vivo; conditions: application rate 1280 g/ha, scored visually after about 3 weeks, Table D1
Procedure, shortened: as §2

Abutilon theophrasti = assay: as above; assay type: in vivo; conditions: application rate 1280 g/ha, scored visually after about 3 weeks, Table D5
Procedure, shortened: as §2

Matricaria inodora = assay: as above; assay type: in vivo; conditions: application rate 1280 g/ha, scored visually after about 3 weeks, Table D7
Procedure, shortened: as §2

Amaranthus retroflexus = assay: as above; assay type: in vivo; conditions: application rate 1280 g/ha, scored visually after about 3 weeks, Table D6
Procedure, shortened: as §2

Stellaria media = assay: as above; assay type: in vivo; conditions: application rate 1280 g/ha, scored visually after about 3 weeks, Table D8
Procedure, shortened: as §2

photosystem II (PS II) = biological target: T1, photosystem II (PS II) (Spinacia oleracea, UniProt P69560); assay: Measurement of PS II activity in thylakoid membranes (DCPIP reduction); assay type: biochemical, spinach; conditions: PS II activity in spinach thylakoid membranes, Table E1; read-out: Effect
T1 construct: the chloroplasts were osmotically ruptured and the thylakoid membranes were then obtained by centrifugation; from tissue; host or cells: fresh spinach leaves; thylakoid membrane preparation from isolated chloroplasts
Procedure, shortened: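 Thylakoid membranes from osmotically ruptured spinach chloroplasts in 50 mM phosphate pH 6.8, 10 mM KCl; compounds added from 100 μM DMSO solution (2.5% DMSO final), 120 μM DCPIP final. DCPIP reduction under light tracked as absorbance decrease at 595 nm over 10 min at 22 °C; % inhibition binned, metribuzin as plate standard.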

Compound: CC1CC(O)N(c2cc(C(C)(C)C)on2)C(=O)N1C (centres unmarked) [I.41-162, 1-(5-tert-Butyl-1,2-oxazol-3-yl)-6-hydroxy-3,4-dimethyltetrahydropyrimidin-2(1H)-one]
- Polygonum convolvulus (efficacy in %) (Polygonum convolvulus): 100%
- Digitaria sanguinalis (efficacy in %) (Digitaria sanguinalis): 100%
- Lolium rigidum (Lolium rigidum): 100%
- Poa Annua (Poa annua): 100%
- Setaria viridis (Setaria viridis): 100%
- Echinochloa crus-galli (Echinochloa crus-galli): 100%
- Abutilon theophrasti (Abutilon theophrasti): 100%
- Matricaria inodora (Matricaria inodora): 100%
- Amaranthus retroflexus (Amaranthus retroflexus): 100%
- Stellaria media (Stellaria media): 100%
- inhibition at 100 µM (photosystem II (PS II)): 70 to 90%
